Measured values taken from the supplement of paper PMC13380429.

Tests used:
U2OS [1] = assay: cell viability relative to DMSO; higher = less toxic; details: 72 h
Vero E6 [2] = assay: as above; details: 72 h
Calu-3 [3] = assay: as above; details: 72 h
HepG2 [4] = assay: as above; details: 72 h
Caco-2 [5] = assay: as above; details: 72 h
[6] = test system: A549-ACE2 infected with SARS-CoV-2; assay: SARS-CoV-2 infection rate relative to DMSO; higher = more infection; details: 24 h
A549-ACE2 [7] = assay: drug-induced phospholipidosis relative to tamoxifen; higher = more phospholipidosis
[8] = test system: A549-ACE2 infected with SARS-CoV-2; assay: cell count relative to DMSO; higher = less toxic; details: 24 h
U2OS [9] = assay: drug sensitivity score (DSS) for viability; higher = more toxic; extreme values may be limits of the assay; details: 72 h
Vero E6 [10] = assay: as above; details: 72 h
Calu-3 [11] = assay: as above; details: 72 h
HepG2 [12] = assay: as above; details: 72 h
Caco-2 [13] = assay: as above; details: 72 h
[14] = test system: A549-ACE2 infected with SARS-CoV-2; assay: morphology score (similarity to uninfected cells); higher = more like uninfected cells; details: 24 h
Vero E6 [15] = assay: relative viability EC50 (midpoint between 100% and the lowest measured viability); higher = less toxic; details: 72 h
Calu-3 [16] = assay: as above; details: 72 h
HepG2 [17] = assay: as above; details: 72 h
A549-ACE2 [18] = assay: phospholipidosis EC50; higher = less potent phospholipidosis inducer
Caco-2 [19] = assay: relative viability EC50 (midpoint between 100% and the lowest measured viability); higher = less toxic; details: 72 h

Cc1c(-c2ccc(O)cc2)n(Cc2ccc(OCCN3CCCCCC3)cc2)c2ccc(O)cc12 [bazedoxifene]
Details | SARS-CoV-2 infection rate, [6] [%] | cell count, [8] [%] | cell viability, Caco-2 [5] [%] | cell viability, Calu-3 [3] [%] | cell viability, HepG2 [4] [%] | cell viability, U2OS [1] [%] | cell viability, Vero E6 [2] [%] | morphology score, [14]
1 nM | – | – | 104 | 96.3 | 95.2 | 104 | 102 | –
10 nM | – | – | 95.3 | 91.5 | 106 | 101 | 105 | –
100 nM | – | – | 95.4 | 105 | 95.3 | 104 | 98.3 | –
0.1 µM | 97 | 99 | – | – | – | – | – | 0.02
0.3 µM | 103 | 105 | – | – | – | – | – | 0.05
1000 nM | – | – | 91.5 | 97.6 | 98.1 | 99.2 | 100 | –
1 µM | 85 | 103 | – | – | – | – | – | 0.36
3 µM | 22 | 122 | – | – | – | – | – | 0.83
10000 nM | – | – | 60.4 | 11.6 | 12.3 | 53 | 18.1 | –

drug-induced phospholipidosis [%], A549-ACE2 [7]
Details | 0.3 µM | 0.833333 µM | 3.33333 µM | 6.66667 µM | 10 µM
24 h | 0.63 | 6.49 | 23.7 | 37.6 | 4.23
48 h | 0.36 | 3.68 | 24.9 | 44.4 | 36.7
72 h | 0.978 | 3.09 | 19.4 | 39.6 | 52.6

Details | drug sensitivity score | relative viability EC50 [µM]
Caco-2 [13] | 3.3 | –
Calu-3 [11] | 5.2 | –
Calu-3 [16] | – | 2.97
HepG2 [12] | 5.1 | –
HepG2 [17] | – | 3.01
U2OS [9] | 2.5 | –
Vero E6 [10] | 4.5 | –
Vero E6 [15] | – | 3.18

Cc1ncc(NC(=O)c2ccc(CN3CCN(C)CC3)c(C(F)(F)F)c2)cc1Nc1nccc(-c2cccnc2)n1 [flumatinib]
Details | SARS-CoV-2 infection rate [%] | cell count [%] | cell viability [%] | morphology score | phospholipidosis EC50 [µM]
A549-ACE2 [18], 24 h | – | – | – | – | 3.17
A549-ACE2 [18], 48 h | – | – | – | – | 4.74
A549-ACE2 [18], 72 h | – | – | – | – | 5.39
Caco-2 [5], 1 nM | – | – | 105 | – | –
Caco-2 [5], 10 nM | – | – | 107 | – | –
Caco-2 [5], 100 nM | – | – | 101 | – | –
Caco-2 [5], 1000 nM | – | – | 95.5 | – | –
Caco-2 [5], 10000 nM | – | – | 83.2 | – | –
Calu-3 [3], 1 nM | – | – | 104 | – | –
Calu-3 [3], 10 nM | – | – | 92.7 | – | –
Calu-3 [3], 100 nM | – | – | 102 | – | –
Calu-3 [3], 1000 nM | – | – | 100 | – | –
Calu-3 [3], 10000 nM | – | – | 93.1 | – | –
HepG2 [4], 1 nM | – | – | 96.4 | – | –
HepG2 [4], 10 nM | – | – | 108 | – | –
HepG2 [4], 100 nM | – | – | 102 | – | –
HepG2 [4], 1000 nM | – | – | 93.5 | – | –
HepG2 [4], 10000 nM | – | – | 39.9 | – | –
Vero E6 [2], 1 nM | – | – | 95.8 | – | –
Vero E6 [2], 10 nM | – | – | 101 | – | –
Vero E6 [2], 100 nM | – | – | 99.3 | – | –
Vero E6 [2], 1000 nM | – | – | 97.4 | – | –
Vero E6 [2], 10000 nM | – | – | 84.3 | – | –
[6], 0.3 µM | 96 | – | – | – | –
[6], 3 µM | 59 | – | – | – | –
[6], 10 µM | 45 | – | – | – | –
[6], 30 µM | 19 | – | – | – | –
[8], 0.3 µM | – | 105 | – | – | –
[8], 3 µM | – | 120 | – | – | –
[8], 10 µM | – | 124 | – | – | –
[8], 30 µM | – | 117 | – | – | –
[14], 0.3 µM | – | – | – | 0.25 | –
[14], 3 µM | – | – | – | 0.65 | –
[14], 10 µM | – | – | – | 0.69 | –
[14], 30 µM | – | – | – | 0 | –

drug-induced phospholipidosis [%], A549-ACE2 [7]
Details | 0.3 µM | 0.833333 µM | 3.33333 µM | 6.66667 µM | 10 µM | 30 µM
24 h | 4.03 | 13.9 | 49.2 | 98.5 | 106 | 5.86
48 h | 3.51 | 7.4 | 29.5 | 74.1 | 89.4 | –
72 h | 4.57 | 8.79 | 24.7 | 66.2 | 84.5 | –

Details | drug sensitivity score | relative viability EC50 [µM]
Caco-2 [13] | 0.8 | –
Caco-2 [19] | – | > 10
Calu-3 [11] | 0 | –
Calu-3 [16] | – | > 10
HepG2 [12] | 4.3 | –
HepG2 [17] | – | 2.28
Vero E6 [10] | 0.5 | –
Vero E6 [15] | – | > 10
